Assay results: US20160095837A1, “MODULATION OF MITOCHONDRIAL CALCIUM UNIPORTER ACTIVITY FOR TREATING AND PREVENTING ARRHYTHMIAS” (priority 2014, published 2016)
pKd: −log10 of the molar value.

How the values were obtained:
[1] = system: HCN4 inward current (If); assay: If current recording in SAN cells; type: cell-based, mouse; conditions: Ru360 dialysis
Description: (§1) SAN cells were placed in Tyrode's solution at 36±0.5° C. and were identified by their characteristic morphology (spindle or spider shape) and spontaneous activity. SAN cells were identified electrophysiologically by spontaneous action potentials with a slow depolarizing phase 4 and the hyperpolarization-activated current (If).^27 Spontaneous action potentials, If and ICa were recorded using the perforated (amphotericin B or β-escin in studies requiring dialysis of Ru360 and/or ATP) patch-clamp technique^28 on single SAN cells at 36±0.5° C. in Tyrode's solution. Intracellular Ca^2+ transients were recorded from single SAN cells using Fura-2 AM excited at 340 nm and 380 nm and emitted and 510 nm. Endogenous NADH from single SAN cells was measured by excitation at 350 nm and recording emitted light at 460 nm.^29 Mitochondrial Ca^2+ was measured at 535 nm from mt-pericam expressing SAN cells exited at 415 nm^20. Mitochondrial Ca^2+ entry was measured in cell membrane permeabilized cardiomyocytes isolated from DN-MCU transgenic, wild type mice and from HEK293 cells using Calcium green-5N^30.
(§2) Spontaneous action potentials (APs) and If were recorded using the perforated (amphotericin B or β-escin) patch-clamp technique^28 on single SAN cell at 36±0.5° C. in Tyrode's solution (0.5 mM BaCl2 was added to the bath solution when recording If^32). […]

[2] = target: mitochondria; conditions: read-out: Kd, binding to mitochondria; cited from earlier work
[3] = system: other cellular Ca2+ transport processes involved in cardiac muscle contraction; conditions: even at micromolar levels; cited from earlier work
[4] = system: Ca2+ uptake into mitochondria in intact myocytes; conditions: incubation with ~10 μM Ru360 for 30 min; cited from earlier work
[5] = system: CaV1 L-type Ca2+ current (ICa); assay: ICa current recording in SAN cells; type: cell-based, mouse; conditions: Ru360 dialysis
Description: as §1, §2

[6] = system: SERCA2a activity ([Ca2+]cyto decline); assay: Cytoplasmic Ca2+ transient decay (Fura-2 AM) in SAN cells; type: cell-based, mouse; conditions: Ru360 dialysis
Description: as §1
Cytosolic Ca^2+ levels were recorded from Fura-2-loaded cells, excited at wavelengths of 340 and 380 nm, and imaged with a 510 nm long-pass filter. Single isolated SAN cells were loaded with 0.1 μM Fura-2 AM for 20 minutes, and then perfused for 20 minutes to de-esterfy the Fura-2 AM in normal Tyrode's solution. After placement on a recording chamber, the cells were perfused in normal Tyrode's solution at 36° C.±0.5. Spindle-shaped, spontaneously beating cells were chosen for experiments. Action potential recording was performed simultaneously.

[7] = system: NADH; assay: NADH autofluorescence in SAN cells; type: cell-based, mouse; conditions: Ru360 dialysis
Description: as §1
The autofluorescence of endogenous NADH, which derives primarily from mitochondria,^29,35 was measured as described^29. NADH was excited at 350 nm (AT350/SOX, Chroma) and fluorescence was recorded at 460 nm (ET460/50m and T400LP, Chroma). […]

**Q.** Which results are given for (μ)[(HCO2)(NH3)4Ru]2OCl3) [Ru360]?
**A.** If responses to ISO [1]: not reduced; pKd [2]: 9.47; Effect on other cellular Ca2+ transport processes involved in cardiac muscle contraction [3]: does not affect; Block of Ca2+ uptake into mitochondria in intact myocytes [4]: completely blocks; ISO-induced ICa increases [5]: not impaired; Decline in [Ca2+]cyto after ISO ([6]; ISO stimulated): slowed; Decline in [Ca2+]cyto in the absence of ISO stimulation ([6]; no ISO): did not slow; ISO-induced increase in NADH fluorescence [7]: prevented
